Values quoted from earlier work, collected in patent publication US8882743B2, “Apparatus and method for application of a pharmaceutical to the tympanic membrane for photodynamic laser myringotomy” (priority 2006, dated 2014).

Test system: tympanic membrane
Details: lance myringotomy with concomitant mitomycin-C versus myringotomy without mitomycin-C

CO[C@@]12[C@H](COC(N)=O)C3=C(C(=O)C(C)=C(N)C3=O)N1C[C@@H]1N[C@@H]12 [mitomycin-C]
time required for closure of the fistulae formed: statistically significant increase
